This assay addresses T1, Follicle Stimulating Hormone Receptor (FSHR) (Homo sapiens, UniProt P23945).
T1 construct: HA (N); expressed in transfected cells; host or cells: CHO-K1, transient transfection, pHM6 vector (CMV promoter)
T1 sequence (P23945 18-695): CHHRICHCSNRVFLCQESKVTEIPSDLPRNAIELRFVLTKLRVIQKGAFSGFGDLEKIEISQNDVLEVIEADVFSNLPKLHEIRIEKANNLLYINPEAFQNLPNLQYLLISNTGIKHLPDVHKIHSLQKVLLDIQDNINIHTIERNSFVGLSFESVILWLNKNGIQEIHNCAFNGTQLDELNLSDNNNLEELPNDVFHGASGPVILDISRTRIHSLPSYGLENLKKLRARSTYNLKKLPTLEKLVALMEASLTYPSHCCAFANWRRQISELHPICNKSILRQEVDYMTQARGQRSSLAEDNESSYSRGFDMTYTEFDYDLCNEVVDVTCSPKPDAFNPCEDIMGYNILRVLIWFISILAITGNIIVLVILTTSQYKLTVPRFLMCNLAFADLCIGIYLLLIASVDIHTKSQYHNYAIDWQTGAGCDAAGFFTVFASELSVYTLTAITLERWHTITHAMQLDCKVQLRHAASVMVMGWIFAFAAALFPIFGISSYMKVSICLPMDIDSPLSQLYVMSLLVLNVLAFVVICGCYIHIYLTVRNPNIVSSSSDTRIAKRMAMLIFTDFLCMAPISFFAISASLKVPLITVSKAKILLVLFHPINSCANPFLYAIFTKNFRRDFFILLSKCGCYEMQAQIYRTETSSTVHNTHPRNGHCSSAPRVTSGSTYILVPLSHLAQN
The assay can be described thus: HTRF cAMP agonist assay, FSHR, transiently transfected CHO-K1 cells. It is filed as cell-based. The conditions noted are these: CHO-K1 cells transiently expressing human FSHR, read-out: IC50 FSHR LANCE CAMP. A general note: Time-resolved FRET reads energy transfer from a long-lived donor to a nearby acceptor.
On to `CC1(C)C(=O)NCCN1C(=O)c1nn(-c2cc(Cl)cc(Cl)c2)c2c1CCc1ccc(-c3cncc(C(N)=O)c3)cc1-2` [Compound 15-04, 5-[1-(3,5-dichlorophenyl)-3-(2,2-dimethyl-3-oxo-piperazine-1-carbonyl)-4,5-dihydrobenzo[g]indazol-8-yl]pyridine-3-carboxamide], for which the IC50 is 381 nM. The result for `COc1cc2ccc3c(C(=O)N(C)C(C)(C)C)nn(-c4cc(Cl)cc(Cl)c4)c3c2cc1-c1ccn(C)n1` [Compound 6-08, N-tert-butyl-1-(3,5-dichlorophenyl)-7-methoxy-N-methyl-8-(1-methylpyrazol-3-yl)benzo[g]indazole-3-carboxamide] reads 78.4 nM.

For the molecule `CC1(C)COCCN1C(=O)c1nn(-c2cc(Cl)cc(Cl)c2)c2c1CCc1ccc(-c3cncc(C(N)=O)c3)cc1-2` [Compound 9-02], the IC50 was 3.81 nM. With `COc1cc2c(cc1-c1cncc(C(N)=O)c1)-c1c(c(C(=O)N3CCN(C)CC3C)nn1-c1cc(Cl)cc(Cl)c1)CC2` (stereo not shown) [Compound 8-05, 5-[1-(3,5-dichlorophenyl)-3-(2,4-dimethylpiperazine-1-carbonyl)-7-methoxy-4,5-dihydrobenzo[g]indazol-8-yl]pyridine-3-carboxamide], the IC50 was found to be 60.3 nM.

For the molecule `COc1cc2c(cc1-c1cncc(C(N)=O)c1)-c1c(c(C(=O)N3[C@H](C)CN(C)C[C@@H]3C)nn1-c1cc(Cl)cc(Cl)c1)CC2` [Compound 12-01], the IC50 was found to be 14.8 nM. The result for `COc1cc2c(cc1-c1cncc(C(N)=O)c1)-c1c(c(C(=O)N3CCNC(=O)C3(C)C)nn1-c1ccncn1)CC2` [Compound 15-05, 5-(3-(2,2-dimethyl-3-oxopiperazine-1-carbonyl)-7-methoxy-1-(pyrimidin-4-yl)-4,5-dihydro-1H-benzo[g]indazol-8-yl)nicotinamide] reads 363 nM. The result for `COc1cc2c(cc1-c1ccncc1)-c1c(c(C(=O)N3CCOCC3(C)C)nn1-c1cc(F)cc(F)c1)CC2` [Compound 15-09, [1-(3,5-difluorophenyl)-7-methoxy-8-(4-pyridyl)-4,5-dihydrobenzo[g]indazol-3-yl]-(3,3-dimethylmorpholin-4-yl)methanone] reads 370 nM.

As for `CCCN1CCN(C(=O)c2nn(-c3cc(Cl)cc(Cl)c3)c3c2CCc2cc(OC)c(-c4cncc(C(N)=O)c4)cc2-3)C(C)(C)C1` [Compound 8-63], the IC50 turned out to be 120 nM. The result for `COc1cc2c(cc1-c1cncc(C(N)=O)c1)-c1c(c(C(=O)N3CCN(C)C(=O)C3(C)C)nn1-c1cc(Cl)cc(Cl)c1)CC2` [Compound 8-69] reads 82.2 nM. Consider `COc1cc2c(cc1-c1cccnc1)-c1c(c(C(=O)N3CCOCC3(C)C)nn1-c1cc(F)cc(F)c1)CO2` [Compound 15-08], for which the IC50 was determined as 7.32 nM. The same measure for `COc1cc2c(cc1-c1cncc(C(N)=O)c1)-c1c(c(C(=O)N3CCN(C#N)CC3C)nn1-c1cc(Cl)cc(Cl)c1)CC2` (stereo not shown) [Compound 8-09, 5-[3-(4-cyano-2-methyl-piperazine-1-carbonyl)-1-(3,5-dichlorophenyl)-7-methoxy-4,5-dihydrobenzo[g]indazol-8-yl]pyridine-3-carboxamide]: 4.44 nM; for `COc1cc2c(cc1-c1cncc(C(N)=O)c1)-c1c(c(C(=O)N3[C@@H](C)CNC[C@@H]3C)nn1-c1cc(Cl)cc(Cl)c1)CC2` [Compound 8-22]: 34.9 nM; for `COc1cc2c(cc1-c1cncc(C(N)=O)c1)-c1c(c(C(=O)N3CCCC34COC4)nn1-c1cc(Cl)cc(Cl)c1)CC2` [Compound 8-27]: 30 nM. The result for `CC1(C)COCCN1C(=O)c1nn(-c2cc(Cl)cc(Cl)c2)c2c1CCc1cc(O)c(-c3cncc(C(N)=O)c3)cc1-2` [Compound 9-04, 5-[1-(3,5-dichlorophenyl)-3-(3,3-dimethylmorpholine-4-carbonyl)-7-hydroxy-4,5-dihydrobenzo[g]indazol-8-yl]pyridine-3-carboxamide] reads 6.99 nM.

As for `COc1cc2c(cc1-c1cncc(C(N)=O)c1)-c1c(c(C(=O)N3CCOCC3(C)C)nn1C(C)C)CC2` [Compound 9-12], the IC50 was determined as 701 nM.

`COc1cc2c(cc1-c1ccn(C)n1)-c1c(c(C(=O)N3CCOCC3(C)C)nn1-c1ccsc1)C2` [Compound 5-07, (3,3-dimethylmorpholin-4-yl)-[6-methoxy-7-(1-methylpyrazol-3-yl)-1-(3-thienyl)-4H-indeno[1,2-c]pyrazol-3-yl]methanone]: the 50% inhibitory concentration (IC50) came to 115 nM. The same measure for `COc1cc(C(N)=O)cc(-c2cc3c(cc2OC)CSc2c(C(=O)N(C)C(C)(C)C)nn(-c4cc(Cl)cc(Cl)c4)c2-3)n1` [Compound 11-03, N-tert-butyl-8-(4-carbamoyl-6-methoxy-2-pyridyl)-1-(3,5-dichlorophenyl)-7-methoxy-N-methyl-5H-isothiochromeno[4,3-c]pyrazole-3-carboxamide]: 75 nM; for `COc1cc2c(cc1-c1ccn(C)n1)-c1c(c(C(=O)N(C)C(C)(C)C)nn1-c1cc(Cl)cc(Cl)c1)OC2` [Compound 2-06]: 195 nM.

As to `COc1cc2c(cc1-c1cncc(C(N)=O)c1)-c1c(c(C(=O)N(CC(F)(F)F)CC(F)(F)F)nn1-c1cc(Cl)cc(Cl)c1)CC2` [Compound 8-56], the IC50 turned out to be 61.3 nM. The same measure for `CCCCn1nc(C(=O)N2CCOCC2(C)C)c2c1-c1cc(-c3cncc(C(N)=O)c3)c(OC)cc1CC2` [Compound 9-15, 5-[1-butyl-3-(3,3-dimethylmorpholine-4-carbonyl)-7-methoxy-4,5-dihydrobenzo[g]indazol-8-yl]pyridine-3-carboxamide]: 42 nM; for `COc1cc2c(cc1-c1cncc(C(N)=O)c1)-c1c(c(C(=O)NC(C)CO)nn1-c1cc(Cl)cc(Cl)c1)CC2` (stereo not shown) [Compound 8-54A]: 222 nM. The same measure for `COc1cc2c(cc1-c1cncc(C(N)=O)c1)-c1c(c(C(=O)N(C)C(C)(C)CO)nn1-c1cc(Cl)cc(Cl)c1)CC2` [Compound 8-10]: 991 nM; for `COc1cc2c(cc1-c1cncc(C(N)=O)c1)-c1c(c(C(=O)N(C)C(C)(C)C)nn1-c1cc(Cl)cc(Cl)c1)CC2` [Compound 6-02, N-tert-butyl-8-(5-carbamoyl-3-pyridyl)-1-(3,5-dichlorophenyl)-7-methoxy-N-methyl-4,5-dihydrobenzo[g]indazole-3-carboxamide]: 8.53 nM. The result for `COc1cc2c(cc1-c1cncc(C(N)=O)c1)-c1c(c(C(=O)N3CCNCC3(C)C)nn1-c1cc(Cl)cc(Cl)c1)CC2` [Compound 8-02] reads 30.5 nM; that for `COc1cc2c(cc1-c1cncc(C(N)=O)c1)-c1c(c(C(=O)N3CCOCC3(C)C)nn1-c1ccccc1)CC2` [Compound 9-17], 5.64 nM. Take `COc1cc2c(cc1-c1cncc(C(N)=O)c1)-c1c(c(C(=O)N3CCC4CNCCC43)nn1-c1cc(Cl)cc(Cl)c1)CC2` (stereo not shown) [Compound 8-23, 5-[3-(2,3,3a,4,5,6,7,7a-octahydropyrrolo[3,2-c]pyridine-1-carbonyl)-1-(3,5-dichlorophenyl)-7-methoxy-4,5-dihydrobenzo[g]indazol-8-yl]pyridine-3-carboxamide]: the IC50 was determined as 457 nM. Regarding `COc1cc2c(cc1-c1cncc(C(N)=O)c1)-c1c(c(C(=O)N3CC[C@H]4CN(C)C[C@H]43)nn1-c1cc(Cl)cc(Cl)c1)CC2` [Compound 8-30], the IC50 came out at 1720 nM.

Consider `COc1cc2c(cc1-c1cncc(C(N)=O)c1)-c1c(c(C(=O)N3[C@H](C)CNC[C@@H]3C)nn1-c1cc(Cl)cc(Cl)c1)CC2` [Compound 8-21], for which the IC50 amounted to 5.38 nM. The same measure for `COc1cc2c(cc1-c1ccn(C)n1)-c1c(c(C(=O)N(C)C(C)(C)C)nn1-c1cc(Cl)cc(Cl)c1)CC2` [Compound 6-04, N-tert-butyl-1-(3,5-dichlorophenyl)-7-methoxy-N-methyl-8-(1-methylpyrazol-3-yl)-4,5-dihydrobenzo[g]indazole-3-carboxamide]: 180 nM; for `COc1cc2c(cc1-c1cncc(C(N)=O)c1)-c1c(c(C(=O)N3COCC3(C)C)nn1-c1cc(Cl)cc(Cl)c1)SC2` [Compound 12-15]: 3.09 nM. The result for `COc1cc2c(cc1-c1cncc(C(N)=O)c1)-c1c(c(C(=O)N3CCC(O)C3(C)C)nn1-c1cc(Cl)cc(Cl)c1)CC2` (stereo not shown) [Compound 8-90A] reads 2.15 nM; that for `COc1cc2c(cc1-c1ccn(C)n1)-c1c(c(C(=O)N(C)C(C)(C)C)nn1-c1cc(Cl)cc(Cl)c1)SC2` [Compound 3-04, N-tert-butyl-1-(3,5-dichlorophenyl)-7-methoxy-N-methyl-8-(1-methylpyrazol-3-yl)-5H-isothiochromeno[4,3-c]pyrazole-3-carboxamide], 223 nM. The result for `COc1cc2c(cc1-c1cncc(C(N)=O)c1)-c1c(c(C(=O)N(C)C(C)(C)C)nn1-c1cc(Cl)cc(Cl)c1)C2` [Compound 5-02, N-tert-butyl-7-(5-carbamoyl-3-pyridyl)-1-(3,5-dichlorophenyl)-6-methoxy-N-methyl-4H-indeno[1,2-c]pyrazole-3-carboxamide] reads 197 nM. Regarding `COc1cc2c(cc1-c1cncc(C(N)=O)c1)-c1c(c(C(=O)N3COCC3(C)C)nn1-c1cc(Cl)cc(Cl)c1)CCO2` [Compound 12-11], the IC50 amounted to 26.6 nM.

One may read the IC50 as the concentration that gives 50% inhibition.

(Values after patent US20260008783A1, “MODULATORS OF FSHR AND USES THEREOF” (Celmatix Inc., priority 2022, published 2026).)
